Measurements as given in ChEMBL document CHEMBL5465560, “Selectivity Literature for EUbOPEN Chemogenomic Library” (2024).

Assays:
[1] = target: Sodium-dependent dopamine transporter (Homo sapiens, UniProt Q01959); assay: Selectivity interaction (GPCR panel (PDSP screen)) EUB0001576a SLC6A3; conditions: at 10 µM
[2] = target: Sigma intracellular receptor 2 (Homo sapiens) (UniProt Q5BJF2); assay: Selectivity interaction (GPCR panel (PDSP screen)) EUB0001576a TMEM97; conditions: at 10 µM
[3] = target: T1, 5-hydroxytryptamine receptor 2B (Homo sapiens, UniProt P41595); assay: Selectivity interaction (GPCR panel (PDSP screen)) EUB0001576a HTR2B; conditions: at 10 µM
[4] = target: Mitogen-activated protein kinase kinase kinase kinase 4 (Homo sapiens, UniProt O95819); assay: Selectivity interaction (Kinase panel (Reaction Biology)) EUB0001184b MAP4K4; conditions: at 1 µM
[5] = target: TRAF2 and NCK-interacting protein kinase (Homo sapiens) (UniProt Q9UKE5); assay: Selectivity interaction (Kinase panel (Reaction Biology)) EUB0001184b TNIK; conditions: at 1 µM
[6] = target: Bone morphogenetic protein receptor type-1B (Homo sapiens, UniProt O00238); assay: Selectivity interaction (Kinase panel (Reaction Biology)) EUB0001184b BMPR1B; conditions: at 1 µM
[7] = target: T2, 5-hydroxytryptamine receptor 1A (Homo sapiens) (UniProt P08908); assay: Selectivity interaction (CEREB panel (panel of receptors, transporters, ion channels, and other enzymes)) EUB0001119a HTR1A; conditions: at 10 µM
T2 sequence (whole entry): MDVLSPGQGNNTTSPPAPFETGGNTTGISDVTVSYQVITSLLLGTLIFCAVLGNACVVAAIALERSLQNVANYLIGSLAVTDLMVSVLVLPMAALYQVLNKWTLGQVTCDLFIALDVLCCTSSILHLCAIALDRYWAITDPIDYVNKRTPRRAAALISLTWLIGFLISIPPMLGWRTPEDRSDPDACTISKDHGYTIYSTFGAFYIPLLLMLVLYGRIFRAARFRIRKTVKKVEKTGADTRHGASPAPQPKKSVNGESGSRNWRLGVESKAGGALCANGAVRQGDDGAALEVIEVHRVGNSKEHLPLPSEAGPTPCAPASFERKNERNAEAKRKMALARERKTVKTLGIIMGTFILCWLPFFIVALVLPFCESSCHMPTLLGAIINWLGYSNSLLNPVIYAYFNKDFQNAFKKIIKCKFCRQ

[8] = target: 5-hydroxytryptamine receptor 1B (Homo sapiens) (UniProt P28222); assay: Selectivity interaction (CEREB panel (panel of receptors, transporters, ion channels, and other enzymes)) EUB0001119a HTR1B; conditions: at 10 µM
[9] = target: Serine/threonine-protein kinase PAK 2 (Homo sapiens) (UniProt Q13177); conditions: at 100 nM
[10] = target: Serine/threonine-protein kinase PAK 3 (Homo sapiens) (UniProt O75914); assay: Selectivity interaction (Kinase panel (Invitrogen)) EUB0001119a PAK3; conditions: at 100 nM
[11] = target: Serine/threonine-protein kinase SIK1 (Homo sapiens) (UniProt P57059); assay: Selectivity interaction (Kinase panel (Invitrogen)) EUB0001119a SIK1; conditions: at 100 nM
[12] = target: 5-hydroxytryptamine receptor 4 (Homo sapiens) (UniProt Q13639); assay: Selectivity interaction (CEREB panel (panel of receptors, transporters, ion channels, and other enzymes)) EUB0001119a HTR4; conditions: at 10 µM
[13] = target: Tyrosine-protein kinase Lck (Homo sapiens, UniProt P06239); assay: Selectivity interaction (Kinase panel (Invitrogen)) EUB0001119a LCK; conditions: at 100 nM
[14] = target: Sodium channel protein type 2 subunit alpha (Homo sapiens) (UniProt Q99250); assay: Selectivity interaction (CEREB panel (panel of receptors, transporters, ion channels, and other enzymes)) EUB0001119a SCN2A; conditions: at 10 µM
[15] = target: Mitogen-activated protein kinase kinase kinase kinase 5 (Homo sapiens) (UniProt Q9Y4K4); assay: Selectivity interaction (Kinase panel (Invitrogen)) EUB0001119a MAP4K5; conditions: at 100 nM
[16] = target: T3, Serine/threonine-protein kinase 26 (Homo sapiens, UniProt Q9P289); conditions: at 100 nM
[17] = target: 5-hydroxytryptamine receptor 2A (Homo sapiens, UniProt P28223); assay: Selectivity interaction (CEREB panel (panel of receptors, transporters, ion channels, and other enzymes)) EUB0001119a HTR2A; conditions: at 10 µM
[18] = target: T1, 5-hydroxytryptamine receptor 2B; assay: Selectivity interaction (CEREB panel (panel of receptors, transporters, ion channels, and other enzymes)) EUB0001119a HTR2B; conditions: at 10 µM
[19] = target: Serine/threonine-protein kinase 24 (Homo sapiens) (UniProt Q9Y6E0); assay: Selectivity interaction (Kinase panel (Invitrogen)) EUB0001119a STK24; conditions: at 100 nM
[20] = target: MAP kinase-interacting serine/threonine-protein kinase 2 (Homo sapiens, UniProt Q9HBH9); conditions: at 1 µM
[21] = target: Calcium/calmodulin-dependent protein kinase type II subunit delta (Homo sapiens) (UniProt Q13557); conditions: at 1 µM
[22] = target: Calcium/calmodulin-dependent protein kinase type II subunit gamma (Homo sapiens) (UniProt Q13555); assay: Selectivity interaction (KinaseProfile service (Milipore)) EUB0001485aCl CAMK2G; conditions: at 1 µM
[23] = target: Serine/threonine-protein kinase PAK 1 (Homo sapiens) (UniProt Q13153); assay: Selectivity interaction (Kinase panel (DSF assayt)) EUB0001479a PAK1
[24] = target: T3, Serine/threonine-protein kinase 26; assay: Selectivity interaction (Kinase panel (DSF assay)) EUB0001479a STK26
[25] = target: Serine/threonine-protein kinase 24 (Homo sapiens) (UniProt Q9Y6E0); assay: Selectivity interaction (Kinase panel (DSF assay)) EUB0001479a STK24
[26] = target: Mitogen-activated protein kinase kinase kinase kinase 5 (Homo sapiens) (UniProt Q9Y4K4); assay: Selectivity interaction (Kinase panel (Reaction Biology)) EUB0001464a MAP4K5; conditions: at 1 µM
[27] = target: Epithelial discoidin domain-containing receptor 1 (Homo sapiens) (UniProt Q08345); assay: Selectivity interaction (Kinase panel (Reaction Biology)) EUB0001464a DDR1; conditions: at 1 µM

Mitogen-activated protein kinase kinase kinase kinase 5 (Homo sapiens), sequence (Q9Y4K4 whole entry, looked up, the tested form may be a part): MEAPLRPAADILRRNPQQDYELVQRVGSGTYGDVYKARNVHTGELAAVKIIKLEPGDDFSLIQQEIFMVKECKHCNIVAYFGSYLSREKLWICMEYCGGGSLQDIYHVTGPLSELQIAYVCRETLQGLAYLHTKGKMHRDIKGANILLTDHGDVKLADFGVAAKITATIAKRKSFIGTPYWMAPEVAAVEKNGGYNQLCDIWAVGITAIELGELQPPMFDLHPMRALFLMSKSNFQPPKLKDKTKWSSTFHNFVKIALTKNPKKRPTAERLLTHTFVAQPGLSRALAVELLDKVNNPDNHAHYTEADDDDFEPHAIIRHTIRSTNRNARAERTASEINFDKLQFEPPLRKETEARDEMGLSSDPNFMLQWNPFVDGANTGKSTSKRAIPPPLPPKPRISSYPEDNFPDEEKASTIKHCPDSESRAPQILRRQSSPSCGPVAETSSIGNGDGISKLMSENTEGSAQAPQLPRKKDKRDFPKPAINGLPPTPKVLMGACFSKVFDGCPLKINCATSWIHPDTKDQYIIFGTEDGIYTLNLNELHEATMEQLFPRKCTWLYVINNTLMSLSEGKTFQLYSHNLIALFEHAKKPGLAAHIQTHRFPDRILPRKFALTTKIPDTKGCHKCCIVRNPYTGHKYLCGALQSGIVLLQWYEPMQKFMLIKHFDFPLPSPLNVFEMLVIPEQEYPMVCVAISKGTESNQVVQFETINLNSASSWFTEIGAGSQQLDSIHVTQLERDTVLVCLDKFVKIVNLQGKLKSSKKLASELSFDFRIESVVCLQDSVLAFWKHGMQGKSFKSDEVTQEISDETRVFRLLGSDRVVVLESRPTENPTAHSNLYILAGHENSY
T1 sequence (P41595 whole entry): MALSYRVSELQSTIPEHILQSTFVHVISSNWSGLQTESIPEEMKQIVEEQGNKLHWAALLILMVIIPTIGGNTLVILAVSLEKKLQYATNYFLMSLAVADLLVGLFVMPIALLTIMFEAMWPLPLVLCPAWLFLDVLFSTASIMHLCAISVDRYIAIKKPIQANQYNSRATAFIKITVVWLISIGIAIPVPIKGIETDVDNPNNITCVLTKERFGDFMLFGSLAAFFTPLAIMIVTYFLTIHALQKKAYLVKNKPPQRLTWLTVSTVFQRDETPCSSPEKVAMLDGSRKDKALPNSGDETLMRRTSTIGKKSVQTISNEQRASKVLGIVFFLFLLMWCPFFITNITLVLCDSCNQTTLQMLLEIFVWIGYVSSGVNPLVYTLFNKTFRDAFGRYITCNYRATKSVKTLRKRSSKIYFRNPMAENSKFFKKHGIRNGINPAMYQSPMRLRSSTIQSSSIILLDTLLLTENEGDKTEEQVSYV
Serine/threonine-protein kinase 24 (Homo sapiens), sequence (Q9Y6E0 whole entry, looked up): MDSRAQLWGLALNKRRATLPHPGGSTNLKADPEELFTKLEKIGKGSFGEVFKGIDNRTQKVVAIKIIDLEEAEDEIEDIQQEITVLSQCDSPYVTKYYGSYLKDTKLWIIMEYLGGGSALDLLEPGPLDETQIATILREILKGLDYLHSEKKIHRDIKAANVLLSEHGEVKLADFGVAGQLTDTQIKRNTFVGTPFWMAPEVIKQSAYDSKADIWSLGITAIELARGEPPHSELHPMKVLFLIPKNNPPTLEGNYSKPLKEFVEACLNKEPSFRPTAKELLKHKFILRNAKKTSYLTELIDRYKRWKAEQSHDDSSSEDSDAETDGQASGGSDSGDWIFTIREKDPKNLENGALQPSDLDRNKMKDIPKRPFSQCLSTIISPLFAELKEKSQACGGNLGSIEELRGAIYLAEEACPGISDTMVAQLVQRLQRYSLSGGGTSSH
T3 sequence (Q9P289 2-416 limits assumed): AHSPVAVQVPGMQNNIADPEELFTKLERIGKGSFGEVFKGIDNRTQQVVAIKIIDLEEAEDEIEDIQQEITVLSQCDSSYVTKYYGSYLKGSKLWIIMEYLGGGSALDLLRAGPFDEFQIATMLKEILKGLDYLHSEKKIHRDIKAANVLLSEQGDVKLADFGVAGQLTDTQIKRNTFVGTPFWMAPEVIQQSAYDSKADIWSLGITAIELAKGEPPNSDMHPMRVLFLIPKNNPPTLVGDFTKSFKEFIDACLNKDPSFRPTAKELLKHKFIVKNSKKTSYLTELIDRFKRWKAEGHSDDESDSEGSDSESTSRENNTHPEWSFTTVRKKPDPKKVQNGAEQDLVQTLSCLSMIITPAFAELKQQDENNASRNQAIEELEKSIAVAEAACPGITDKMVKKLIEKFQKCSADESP
Serine/threonine-protein kinase PAK 2 (Homo sapiens), sequence (Q13177 whole entry): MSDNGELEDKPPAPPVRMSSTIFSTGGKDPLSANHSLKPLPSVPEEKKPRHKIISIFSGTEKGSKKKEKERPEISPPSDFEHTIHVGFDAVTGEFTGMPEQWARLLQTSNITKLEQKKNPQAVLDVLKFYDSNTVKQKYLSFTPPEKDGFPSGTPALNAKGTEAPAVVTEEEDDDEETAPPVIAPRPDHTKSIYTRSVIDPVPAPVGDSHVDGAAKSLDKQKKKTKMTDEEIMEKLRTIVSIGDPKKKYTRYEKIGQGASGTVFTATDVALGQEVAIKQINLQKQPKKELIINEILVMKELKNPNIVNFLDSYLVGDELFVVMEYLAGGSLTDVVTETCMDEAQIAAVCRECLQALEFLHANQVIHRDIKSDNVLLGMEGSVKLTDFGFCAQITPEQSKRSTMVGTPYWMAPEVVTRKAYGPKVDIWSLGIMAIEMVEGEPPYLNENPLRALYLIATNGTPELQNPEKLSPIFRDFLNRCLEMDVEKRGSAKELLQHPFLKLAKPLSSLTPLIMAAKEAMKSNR
Mitogen-activated protein kinase kinase kinase kinase 4, sequence (O95819 2-1239 limits assumed): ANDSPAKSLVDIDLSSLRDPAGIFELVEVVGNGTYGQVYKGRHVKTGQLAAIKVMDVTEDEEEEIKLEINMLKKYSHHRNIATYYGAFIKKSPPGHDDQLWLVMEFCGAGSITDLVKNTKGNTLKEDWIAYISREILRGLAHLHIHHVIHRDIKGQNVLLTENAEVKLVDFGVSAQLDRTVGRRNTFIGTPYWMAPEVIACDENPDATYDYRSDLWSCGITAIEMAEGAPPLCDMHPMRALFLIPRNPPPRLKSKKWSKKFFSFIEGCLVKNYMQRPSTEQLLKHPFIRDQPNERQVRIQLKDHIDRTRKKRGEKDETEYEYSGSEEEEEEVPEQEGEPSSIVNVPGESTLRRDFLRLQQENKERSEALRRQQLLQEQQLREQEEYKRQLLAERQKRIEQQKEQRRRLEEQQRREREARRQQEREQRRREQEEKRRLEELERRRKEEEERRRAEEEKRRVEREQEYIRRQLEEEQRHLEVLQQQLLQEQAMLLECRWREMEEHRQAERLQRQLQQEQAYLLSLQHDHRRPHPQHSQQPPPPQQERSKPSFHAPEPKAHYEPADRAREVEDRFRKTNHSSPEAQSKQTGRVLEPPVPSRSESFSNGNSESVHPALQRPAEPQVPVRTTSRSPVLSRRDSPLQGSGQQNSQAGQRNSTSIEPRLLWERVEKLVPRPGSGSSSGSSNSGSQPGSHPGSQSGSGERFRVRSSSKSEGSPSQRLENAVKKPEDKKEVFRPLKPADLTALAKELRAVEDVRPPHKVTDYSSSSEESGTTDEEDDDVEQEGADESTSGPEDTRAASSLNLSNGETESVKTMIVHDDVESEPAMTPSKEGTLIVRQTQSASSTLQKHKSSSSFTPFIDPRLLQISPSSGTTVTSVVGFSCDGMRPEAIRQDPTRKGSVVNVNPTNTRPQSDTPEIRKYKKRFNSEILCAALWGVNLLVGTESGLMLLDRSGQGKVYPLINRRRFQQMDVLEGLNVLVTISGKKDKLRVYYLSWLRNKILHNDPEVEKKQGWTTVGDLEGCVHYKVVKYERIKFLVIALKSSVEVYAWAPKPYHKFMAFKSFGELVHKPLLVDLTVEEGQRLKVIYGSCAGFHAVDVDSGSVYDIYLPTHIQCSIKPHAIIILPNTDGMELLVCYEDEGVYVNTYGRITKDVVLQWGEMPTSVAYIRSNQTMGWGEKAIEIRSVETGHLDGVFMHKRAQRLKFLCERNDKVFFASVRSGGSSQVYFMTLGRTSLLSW
Sodium-dependent dopamine transporter, sequence (Q01959 whole entry): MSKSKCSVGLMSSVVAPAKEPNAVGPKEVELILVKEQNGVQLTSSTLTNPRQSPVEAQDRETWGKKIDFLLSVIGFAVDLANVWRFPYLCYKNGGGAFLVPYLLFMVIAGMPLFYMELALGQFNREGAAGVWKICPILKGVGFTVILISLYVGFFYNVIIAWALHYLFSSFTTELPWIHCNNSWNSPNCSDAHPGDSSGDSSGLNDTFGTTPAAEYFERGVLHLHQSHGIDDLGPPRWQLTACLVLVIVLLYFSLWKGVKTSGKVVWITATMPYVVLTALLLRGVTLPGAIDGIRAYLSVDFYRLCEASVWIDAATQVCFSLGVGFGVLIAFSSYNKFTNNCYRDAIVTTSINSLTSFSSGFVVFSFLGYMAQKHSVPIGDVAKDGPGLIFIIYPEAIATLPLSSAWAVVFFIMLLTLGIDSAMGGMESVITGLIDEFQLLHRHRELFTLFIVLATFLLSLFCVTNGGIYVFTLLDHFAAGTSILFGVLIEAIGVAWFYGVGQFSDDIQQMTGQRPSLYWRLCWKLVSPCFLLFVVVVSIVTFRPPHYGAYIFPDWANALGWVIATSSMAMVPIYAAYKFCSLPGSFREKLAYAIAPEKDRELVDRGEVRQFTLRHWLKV
5-hydroxytryptamine receptor 1B (Homo sapiens), sequence (P28222 whole entry): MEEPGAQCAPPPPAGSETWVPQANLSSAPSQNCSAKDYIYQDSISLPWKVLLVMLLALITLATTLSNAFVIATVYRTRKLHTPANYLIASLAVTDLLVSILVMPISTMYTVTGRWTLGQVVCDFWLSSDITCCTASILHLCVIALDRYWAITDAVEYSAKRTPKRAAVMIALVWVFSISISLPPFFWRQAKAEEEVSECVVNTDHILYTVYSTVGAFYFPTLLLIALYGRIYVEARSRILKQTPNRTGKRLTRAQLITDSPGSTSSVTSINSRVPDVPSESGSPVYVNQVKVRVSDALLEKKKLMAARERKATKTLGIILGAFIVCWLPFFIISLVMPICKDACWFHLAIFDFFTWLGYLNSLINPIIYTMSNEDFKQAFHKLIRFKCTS

CN(C)C(=O)c1sc2nc(N3CCC(S(C)(=O)=O)CC3)cc(C(F)(F)F)c2c1N
% of inhibition [1]: 80.5%
% of inhibition [2]: 70.6%
% of inhibition [3]: 47.5%

COc1cc(-c2cncc(-c3ccc(N4CCN(C(C)C)CC4)cc3)c2C)cc(F)c1C(N)=O
% of inhibition [4]: 30%
% of inhibition [5]: 4.92%
% of inhibition [6]: 27%

CNc1ncc2cc(-c3ccc(-c4cccc(C)n4)cc3Cl)c(=O)n(C[C@H]3OC[C@H](N)CO3)c2n1
% of inhibition [7]: 56%
% of inhibition [8]: 84%
% of inhibition [9]: 101%
% of inhibition [10]: 91.5%
% of inhibition [11]: 95.3%
% of inhibition [12]: 75%
% of inhibition [13]: 75.7%
% of inhibition [14]: 75%
% of inhibition [15]: 99.8%
% of inhibition [16]: 89.7%
% of inhibition [17]: 75%
% of inhibition [18]: 92%
% of inhibition [19]: 80.6%

COc1cc(-c2cn[nH]c2)ccc1C(=O)Nc1ccc2c(c1)CCNCC2
% of control [20]: 55%
% of control [21]: 60%
% of control [22]: 59%

CN(C)c1ncc2cc(-c3ccc(-c4ncccc4F)cc3Cl)c(=O)n(C[C@H]3OC[C@H](N)CO3)c2n1
dTM [23]: 0.9 K
dTM [24]: 0.8 K
dTM [25]: 0.2 K

c1ccc2c(-c3coc4cc(-c5ccc(N6CCNCC6)cc5)cnc34)ccnc2c1
% of inhibition [26]: 28%
% of inhibition [27]: 28%
